In patent US20170298083A1, “NEW IMMUNOSTIMULATORY COMPOUNDS” (Bernhard-Nocht-Institut für Tropenmedizin, priority 2014, published 2017):

Tests used:
human NKT cells = assay: human iNKT cell assay: intracellular cytokine production in whole PBMCs by FACS; format: cell-based; settings: human PBMC, 15 h, 1 μg/ml αGalCer or 10 μg/ml purified EhLPPG, FIG. 1
Leishmania major = assay: in vitro Leishmania assay: infected bone marrow derived macrophages; settings: for percentage of L. major infected macrophages / parasite load per macrophage: BMM, 48 h
[1] = liver toxicity: serum ALT after intraperitoneal injection; format: in vivo; settings: C57BL/6 mice, four-time intraperitoneal injection; EhLPPG 1, 10, 25 and 50 μg/ml; αGalCer 0.1, 1 and 10 μg/ml

CCCCCCCCCCCCCCCCCCCCCCCCCC(=O)N[C@@H](CO[C@H]1O[C@H](CO)[C@H](O)[C@H](O)[C@H]1O)[C@H](O)[C@H](O)CCCCCCCCCCCCCC [αGalCer, α-galactosylceramide]
production of tumor necrosis factor (TNF) α and IL-17 in NKT cells (human NKT cells): led to the production of tumor necrosis factor (TNF) α and IL-17
CD4+NKT cells positive for IFN-γ and IL-4 (human NKT cells; αCD28 co-stimulant): considerable amounts of CD4+NKT cells positive for IFN-γ and IL-4
percentage of L. major infected macrophages (Leishmania major; spleen-derived lymphocytes co-incubated, FIG. 5B): significantly reduced
parasite load per macrophage (Leishmania major; with addition of spleen cells, FIG. 5D): a significant reduction
percentage of L. major infected macrophages (Leishmania major; without spleen cells, FIG. 5A): significantly reduced
parasite load per macrophage (Leishmania major; without spleen cells, FIG. 5C): significantly reduced the amount of parasites within the macrophages
expression of iNOS (Leishmania major; preliminary results, data not shown): increase in the expression of iNOS
liver ALT enzyme level in serum [1]: significant increase in the ALT levels
